# Measured values taken from patent US20140323562A1, “THIOSULFINATE ANTIOXIDANTS AND METHODS OF USE THEREOF” (Universition of Ottawa, priority 2011, published 2014).
# Like-named read-outs stand apart in the source and are kept apart here. Marks after values point to notes of the source that are not given here.
# Experiments:
# [1] = Oxidation of egg phosphatidylcholine liposomes containing the fluorescent probe H2B-PMHC; conditions: for radical trapping at the lipid/water interface: water-soluble ABAP-mediated oxidation; for radical trapping at the lipid/water interface / inhibition of oxidation of liposome-embedded H2B-PMHC: no thiol; for effect of increasing equivalents of NAC on inhibited period: 4.5 μM compound, MeOAMVN and ABAP, NAC 1-5 equiv. (9) or 0-4 equiv. (5); for effect on oxidation of liposome-embedded H2B-PMHC with one equivalent of NAC: MeOAMVN- or ABAP-mediated, 4.5-15 μM, equivalent amount of NAC, PBS pH 7.4; for inhibition of oxidation of liposome-embedded H2B-PMHC: MeOAMVN-mediated (0.2 mM), compound 1.5-15 μM; for efficacy relative to α-TOH in a lipid bilayer: inferred from no effect at 15 μM (100-fold over H2BPMHC)
# Experimental: FIG. 1 depicts representative fluorescence intensity-time profiles from MeOAMVN-mediated (0.2 mM) oxidations of egg phosphatidylcholine liposomes (1 mM) containing 0.15 μM H2BPMHC and increasing concentrations (1.5, 3.0, 4.5, 6.0, 7.5 and 15 μM) of 1 (A), 2 (B), 5 (C) and 8 (D—15 μM profile not shown); fluorescence (λex=485 nm; λem=520 nm) was recorded every 50 s;
# FIG. 2 depicts representative fluorescence intensity-time profiles from MeOAMVN-mediated (0.2 mM, left) and ABAP-mediated (2.7 mM, right) oxidations of egg phosphatidylcholine liposomes (1 mM) containing 0.15 μM H2B-PMHC and either 2 (A, B) or 9 (C, D) at 4.5 μM (black), 7.5 μM (grey) or 15 μM (light grey) in PBS buffer of pH 7.4 containing an equivalent amount of NAC; panels E and F show the effect of NAC only (4.5, 7.5 and 15 μM); fluorescence (λex=485 nm; λem=520 nm) was recorded every 50 s; and
# FIG. 3 depicts representative fluorescence-time profiles from MeOAMVN-mediated (0.2 mM, left) and ABAP-mediated (2.7 mM, right) oxidations of egg phosphatidylcholine liposomes (1 mM) containing 0.15 μM H2B-PMHC and either 4.5 μM 9 (A, B) with 1, 2, 3 or 5 equiv. of NAC or 4.5 μM 5 (C, D) with 0, 1, 2 or 4 equiv. of NAC; fluorescence (λex=485 nm; λem=520 nm) was recorded every 50 s.
# To shed some light on this issue, the radical-trapping abilities of 1, 2 and 5 have been studied in unilamellar phosphatidylcholine liposomes—convenient models for the lipid bilayers that make up biological membranes. The relative reactivities of the compounds were determined using H2B-PMHC (6), an analog of α-tocopherol (7 or α-TOH, the most biologically-active form of Vitamin E and Nature's premier lipophilic radical-trapping antioxidant) (G. W. Burton, K. U. Ingold, Acc. Chem. Res. 1986, 19, 194-201), which undergoes a significant fluorescence enhancement upon oxidation by two equivalents of peroxyl radical. In the presence of a good radical-trapping antioxidant, the fluorescence onset is suppressed since the radicals are trapped by the compound under investigation in lieu of reacting with H2B-PMHC.
# Initial experiments focused on the ability of either 1 or 2 to inhibit the oxidation of liposome-embedded H2B-PMHC by either lipophilic or hydrophilic peroxyl radicals derived from the azo initiators MeOAMVN (N. Noguchi, H. Yamashita, N. Gotoh, Y. Yamamoto, R. Numano, E. Niki, Free Rad. Biol. Med. 1998, 24, 259-268) and ABAP, (L. R. C. Barclay, S. J. Locke, J. M. MacNeil, J. VanKessel, G. W. Burton, K. U. Ingold, J. Am. Chem. Soc. 1984, 106, 2479-2481) respectively. Representative results are shown for MeOAMVN-mediated oxidations in FIG. 1. […] Since the reactivity of H2B-PMHC is essentially the same as that of α-TOH, the efficacy of 1 and 2 must therefore be less than 1/100 that of α-TOH in a lipid bilayer.
# The time required to reach maximum fluorescence in the first phase of the plots in FIG. 1 (ca. 400 counts), which we will hereafter refer to as the ‘inhibited period’, reflects the stoichiometry of the reaction of the antioxidant and the peroxyl radicals. […] Chem. Int. Ed. 2009, 48, 157-160; and R. Amorati, P. T. Lynett, L. Valgimigli, D. A. Pratt, Chem. Eur. J. 2012, 18, 6370-6379)
# [2] = going from chlorobenzene to acetonitrile; cited from earlier work
# [3] = known from literature under these conditions; cited from earlier work
# [4] = Decomposition / Cope elimination half-life (HPLC); type: physicochemical
# From the text: The lack of radical-trapping activity of allicin and petivericin obvious from FIGS. 1A and 1B could be due to their partitioning to the aqueous phase, where Cope elimination to produce the reactive sulfenic acids 3 and 4, respectively, is slowed dramatically by H-bonding. (V. Vaidya, K. U. Ingold, D. A. Pratt, Angew. Chem. Int. Ed. 2009, 48, 157-160; P. T. Lynett, K. Butts, V. Vaidya, G. E. Garrett, D. A. Pratt, Org. Biomol. Chem. 2011, 9, 3320-3330; E. Block, Angew. Chem. Int. Ed. Engl. 1992, 31, 1135-1178; and F. Freeman, Y. Kodera, J. Agric. Food Chem. 1995, 43, 2332-2338] However, the half-life for decomposition of allicin in the liposome solutions (determined by HPLC) was extended by only 50% compared to that determined in non-H-bonding organic solvents (˜60 minutes). (V. Vaidya, K. U. Ingold, D. A. Pratt, Angew. Chem. Int. Ed. 2009, 48, 157-160; P. T. Lynett, K. Butts, V. Vaidya, G. E. Garrett, D. A. Pratt, Org. Biomol. Chem. 2011, 9, 3320-3330). This is consistent with a previous report which provides a partition coefficient for allicin in phosphatidylcholine:water of Kp=11 (T. Miron, A. Rabinkov, D. Mirelman, M. Wilchek, L. Weiner, Biochim. Biophys. Acta 2000, 1463, 20-30). The Cope elimination of 3 from petivericin was roughly identical—with a half-life of ˜90 minutes (see Supp. Info.). […]
# [5] = Peroxyl radical clock (methyl linoleate oxidation, Z,E:E,E product ratio by HPLC); conditions: for kinh/kinh (C6BPT): chlorobenzene at 37° C., peroxyl radical clock
# Experimental: The kinetics of reaction of p-n-C6H13-BPT with peroxyls was studied using a method based on the peroxyl radical clocks described in Roschek, B.; Tallman, K. A.; Rector, C. L.; Gillmore, J. G.; Pratt, D. A.; Punta, C.; Porter, N. A. J. Org. Chem. 2006, 71, 3527-3532.
# Stock solutions of methyl linoleate (“MeLin”) (1.0 M), methoxy 2,2′-Azobis(4-methoxy-2,4-dimethyl valeronitrile) (“MeOAMVN”) (0.1 M), and the thiosulfinates, BPT and p-n-C6H13-BPT 5, were prepared in chlorobenzene. Samples were assembled in 1 mL HPLC autosampler vials with a total reaction volume of 100 μL. Solutions were prepared in the following order to avoid premature oxidation:thiosulfinate (1 mM-7 mM), MeLin (0.10 M) and then MeOAMVN (0.01 M), and diluted to 100 μL with chlorobenzene. The sealed samples were then heated to 37° C. for 2 h. After 2 h, the oxidation was stopped by the addition of butylated hydroxytoluene (“BHT”) (50 μL of 1.0 M solution in hexanes), followed by reduction of the hydroperoxides to alcohols by triphenylphosphine (50 μL of 1 M solution in chlorobenzene). The samples were then diluted to 1 mL with HPLC grade hexanes and analyzed by HPLC (0.5% i-PrOH in hexanes, 1 mL min-1, 40 min, Sun-Fire Silica, 5 mm 4.6×250 mm column, UV detection at 234 nm). The ratio of products (Z,E:E,E) was plotted versus thiosulfinate concentration to derive kH, (Roschek, B.; Tallman, K. A.; Rector, C. L.; Gillmore, J. G.; Pratt, D. A.; Punta, C.; Porter, N. A. J. Org. Chem. 2006, 71, 3527-3532).
# The peroxyl radical clock method was used to measure the rate constants for the reaction of a furan-containing thiosulfinate compound (S-(furan-2-ylmethyl) furan-2-ylmethanesulfinothioate) with peroxyl radicals (kinh). The method relies on the competition between the β-fragmentation of a peroxyl radical and its trapping by a H-atom donor. When methyl linoleate is used as a precursor, the reduction of the two initially formed (Z,E)-dienylperoxyl radicals by the antioxidant (A-H in the scheme below) competes with their isomerization to the more thermodynamically stable (E,E)-dienylperoxyl radicals. […]
# [6] = chlorobenzene, 37° C., same conditions; cited from earlier work
# [7] = radicals generated using MeOAMVN
smiles,measurement,setting,value
"CC(=O)N[C@@H](CS)C(=O)O [NAC, N-acetylcysteine]",effect of NAC alone on oxidation,"[1]; ABAP-mediated, 4.5, 7.5 and 15 μM",only a modest retarding effect
same,effect of NAC alone on oxidation,"[1]; MeOAMVN-mediated, 4.5, 7.5 and 15 μM",does little
"Cc1c(C)c2c(c(C)c1O)CC[C@@](C)(CCC[C@H](C)CCC[C@H](C)CCCC(C)C)O2 [compound 7, α-tocopherol]",slowing of rate of reaction with peroxyl radicals by H-bond accepting solvent,[2],20 fold
"Cc1c(C)c2c(c(C)c1O)CCC(C)(C)O2 [compound 8, PMHC]",slope of inhibited period versus concentration,[1]; radicals generated using AAPH,21 min/µM
same,slope of inhibited period versus concentration,[1]; [7],31 min/µM
same,radical trapping at the lipid/water interface,[1],can trap radicals at the lipid/water interface
same,number of peroxyl radicals trapped (stoichiometry),[3],two
CCCCCCc1ccc(CS[S+]([O-])Cc2ccc(CCCCCC)cc2)cc1 (stereo not shown) [compound 9],effect of increasing equivalents of NAC on inhibited period,[1],proportionately increased the inhibited period
same,effect on oxidation of liposome-embedded H2B-PMHC with one equivalent of NAC,[1],pronounced inhibited period
same,inhibition of oxidation of liposome-embedded H2B-PMHC,[1],essentially indistinguishable from those supplemented with allicin and petivericin
"C=CCS[S+]([O-])CC=C (stereo not shown) [compound 1, allicin]",effect on oxidation of liposome-embedded H2B-PMHC with one equivalent of NAC,[1],little effect
same,inhibition of oxidation of liposome-embedded H2B-PMHC,[1],neither 1 nor 2 were able to slow the oxidation
same,efficacy relative to α-TOH in a lipid bilayer,[1],less than 1/100
same,radical trapping at the lipid/water interface,[1],cannot
same,extension of half-life for decomposition in liposome solutions compared to non-H-bonding organic solvents,[4]; HPLC,50%
"CCCCCCc1ccc(CS[S+]([O-])Cc2ccc(CCCCCC)cc2)cc1 (stereo not shown) [p-n-C6H13-BPT 5, p-n-C6H13-Benzyl phenylmethane thiosulfinate]",kinh/kinh (C6BPT),[5],1.0^a
same,rate constant relative to that of BPT,"[5]; chlorobenzene, 37° C., MeLin 0.10 M, MeOAMVN 0.01 M",about 1.6 fold
"OSC12c3ccccc3C(c3ccccc31)c1ccccc12 [compound 5, 9-triptycenesulfenic acid]",effect of increasing equivalents of NAC on inhibited period,[1],the inhibited period was extended with increasing concentration of NAC
same,inhibition of oxidation of liposome-embedded H2B-PMHC,[1],excellent concentration-dependent radical-trapping activity
same,rate of H2B-PMHC oxidation (fluorescence increase),"[1]; MeOAMVN-mediated, in presence of compound",essentially nil
same,number of peroxyl radicals trapped (stoichiometry),[1]; implied from slope relative to 8,one
same,slope of inhibited period versus concentration,[1]; radicals generated using AAPH,10 min/µM
same,slope of inhibited period versus concentration,[1]; [7],14 min/µM
same,radical trapping at the lipid/water interface,[1],can trap radicals at the lipid/water interface
[O-][S+](Cc1ccco1)SCc1ccco1 (stereo not drawn) [S-(furan-2-ylmethyl) furan-2-ylmethanesulfinothioate],kinh/kinh (C6BPT),[5],1.1
"[O-][S+](Cc1ccccc1)SCc1ccccc1 (stereo not shown) [BPT, S-Benzyl phenylmethane thiosulfinate]",effect on oxidation of liposome-embedded H2B-PMHC with one equivalent of NAC,[1],little effect
same,inhibition of oxidation of liposome-embedded H2B-PMHC,[1],neither 1 nor 2 were able to slow the oxidation
same,efficacy relative to α-TOH in a lipid bilayer,[1],less than 1/100
same,radical trapping at the lipid/water interface,[1],cannot
same,half-life,[4]; liposome solutions,~1.5 h
same,kH,[6],200000 M⁻¹ s⁻¹
